Source: US20020009441A1, “Reactively modified therapeutic compounds having an extended lifetime in vivo” (priority 1993, published 2002)
Values belong to the compound of their own block, whether it stands above or below them.

What was measured:
[1] = tested on: plasma proteins; conditions: rabbit, in vivo
[2] = tested on: red blood cells; conditions: rabbit, in vivo
Protocol: I. Two rabbits were injected with a solution of N-succinimidyl biotin ester (NHS-biotin)(5 or 50 mg in 200 μl or 1 ml of DMSO) i.v. on day 0.

[3] = blood component in blood; cited from earlier work
[4] = tested on: anti-avidin titer; assay: Anti-avidin antibody titer by ELISA after i.v. avidin; type: in vivo, rabbit
Source text: II. […] Within about 2 days the titer began to rise rapidly and by 10 days a high anti-avidin titer was observed by ELISA, using avidin coated to microiplates, as evidenced by an OD value of about 600.

- duration for which IgG bands could be observed [1]: 9 days
- duration of detection of biotin bound to IgM and IgG [1]: up to 33 days
- biotinylated red blood cell protein bands at 33 days [2]: no bands could be observed
- duration for which biotinylated red blood cell proteins could be observed [2]: 12 days
Compound: O=C1N[C@H]2[C@H](CS[C@H]2CCCCC(=O)ON2C(=O)CCC2=O)N1 [NHS-biotin, N-succinimidyl biotin ester]

Compound: transferrin: blood protein, mobile blood component
- Half-life [3]: 240 h

Compound: avidin: egg white avidin, heterologous protein and reciprocal binding member of biotin
- time at which anti-avidin titer began to rise rapidly ([4]; 250 μg or 1 mg egg white avidin i.v. after biotin conjugate administration): ≤ 2 days
- anti-avidin titer, OD value (ELISA) ([4]; by 10 days, 250 μg or 1 mg egg white avidin i.v. after biotin conjugate administration): about 600
- anti-avidin antibody production ([4]; rabbits not previously given biotin conjugate, before i.v. booster of 50 μg avidin on day 6): substantially no production of antibodies
